What all share (type): functional
For assay [1], the system named is Echinochloa crus-galli. Put plainly: Herbicidal activity against barnyard grass assessed as inhibition of root growth at 10 mg/L relative to control.
The subject of assay [2] is Echinochloa crus-galli. Put plainly: Herbicidal activity against barnyard grass assessed as inhibition of root growth at 100 mg/L relative to control.
Assay [3] has as its system Echinochloa crus-galli. Put plainly: Herbicidal activity against barnyard grass assessed as inhibition of stalk growth at 100 mg/L relative to control.
The test system of assay [4] is Echinochloa crus-galli. Put plainly: Herbicidal activity against barnyard grass assessed as inhibition of stalk growth at 10 mg/L relative to control.
The subject of assay [5] is Brassica napus. Put plainly: Herbicidal activity against rape assessed as inhibition of stalk growth at 10 mg/L relative to control.
The subject of assay [6] is Brassica napus. Put plainly: Herbicidal activity against rape assessed as inhibition of stalk growth at 100 mg/L relative to control.
Assay [7] concerns Brassica napus. Put plainly: Herbicidal activity against rape assessed as inhibition of root growth at 100 mg/L relative to control.
The test system of assay [8] is Brassica napus. Put plainly: Herbicidal activity against rape assessed as inhibition of root growth at 10 mg/L relative to control.

The structures appear in SMILES notation.

What is called inhibition is the drop in the measured response relative to a control, in per cent. With `CCCOC(=O)C(C)Oc1ccc(Oc2nc3c(c(SC)nn3-c3ccccc3)c(=O)n2C(=O)Nc2ccccc2Cl)cc1` (stereo not drawn), the inhibition at 10 µg/mL was 53.4% with Echinochloa crus-galli [1], 25.8% in the assay with Echinochloa crus-galli [4], 10.6% in the assay on Brassica napus [5] and 5.5% with Brassica napus [8]. Further, the inhibition at 100 µg/mL with Echinochloa crus-galli [2] was 64.3%; in the assay with Echinochloa crus-galli [3] it was 25.8%; in the assay on Brassica napus [6], 8.5%; in the assay on Brassica napus [7], 36.7%.

Consider `COC(=O)C(C)Oc1ccc(Oc2nc3c(c(SC)nn3-c3ccccc3)c(=O)n2C(=O)Nc2ccccc2)cc1` (stereo not drawn), for which the inhibition at 10 µg/mL in the assay with Echinochloa crus-galli [1] amounted to 63%; in the assay with Echinochloa crus-galli [4], 44.8%; in the assay on Brassica napus [5] it was 20.5%; with Brassica napus [8] it was 40.2%. Also, the inhibition at 100 µg/mL in the assay with Echinochloa crus-galli [2] turned out to be 93.5%; in the assay on Echinochloa crus-galli [3], 68.9%; in the assay with Brassica napus [6], 76.9%; in the assay on Brassica napus [7], 96.1%.

With `CCOC(=O)C(C)Oc1ccc(Oc2nc3c(c(SC)nn3-c3ccccc3)c(=O)n2C(=O)Nc2ccccc2)cc1` (stereo not drawn), the inhibition at 10 µg/mL with Echinochloa crus-galli [1] was 57.7%; in the assay on Echinochloa crus-galli [4], 12.9%; in the assay on Brassica napus [5], 12.9%; in the assay on Brassica napus [8], 57.4%. Moreover, the inhibition at 100 µg/mL with Echinochloa crus-galli [2] worked out at 88.5%; in the assay on Echinochloa crus-galli [3], 32.3%; with Brassica napus [6], 46.2%; in the assay with Brassica napus [7], 86.1%.

On to `COC(=O)C(C)Oc1ccc(Oc2nc3c(c(S(C)(=O)=O)nn3-c3ccccc3)c(=O)n2C(=O)Nc2ccccc2)cc1` (stereo not drawn), for which the inhibition at 10 µg/mL with Echinochloa crus-galli [1] was found to be 66.7%; in the assay on Echinochloa crus-galli [4], 5.3%; with Brassica napus [5], 13.3%; with Brassica napus [8], 25%. The inhibition at 100 µg/mL came to 93.3% in the assay on Echinochloa crus-galli [2], 31.6% in the assay on Echinochloa crus-galli [3], 48.9% in the assay on Brassica napus [6] and 80.4% with Brassica napus [7].

For `COC(=O)C(C)Oc1ccc(Oc2nc3c(c(S(C)(=O)=O)nn3-c3ccccc3)c(=O)n2C(=O)Nc2ccccc2F)cc1` (stereo not drawn), the inhibition at 10 µg/mL in the assay on Echinochloa crus-galli [1] amounted to 33.3%; with Echinochloa crus-galli [4], 10.5%; in the assay with Brassica napus [5], 0%; in the assay with Brassica napus [8], 16.3%. For the same molecule, the inhibition at 100 µg/mL with Echinochloa crus-galli [2] is 53.3%; in the assay with Echinochloa crus-galli [3], -21%; with Brassica napus [6], 0%; with Brassica napus [7] it was 28%.

In the case of `CCOC(=O)C(C)Oc1ccc(Oc2nc3c(c(S(C)(=O)=O)nn3-c3ccccc3)c(=O)n2C(=O)Nc2cccc(C)c2)cc1` (stereo not drawn), the inhibition at 10 µg/mL with Echinochloa crus-galli [1] came out at 54.3%; in the assay on Echinochloa crus-galli [4], 3.4%; in the assay on Brassica napus [5], 17.9%; in the assay on Brassica napus [8] it was 51%. Further, the inhibition at 100 µg/mL in the assay with Echinochloa crus-galli [2] came to 95.6%; in the assay on Echinochloa crus-galli [3] it was 51.7%; in the assay with Brassica napus [6] it was 74.4%; in the assay with Brassica napus [7], 98%.

Turning to `CCOC(=O)C(C)Oc1ccc(Oc2nc3c(c(SC)nn3-c3ccccc3)c(=O)n2C(=O)Nc2cccc(C)c2)cc1` (stereo not drawn), the inhibition at 10 µg/mL in the assay on Echinochloa crus-galli [1] was 59.6%; in the assay with Echinochloa crus-galli [4], -12.9%; in the assay on Brassica napus [5], 9.6%; in the assay with Brassica napus [8], 46.5%. Further, the inhibition at 100 µg/mL stood at 88.5% in the assay with Echinochloa crus-galli [2], 0% in the assay on Echinochloa crus-galli [3], 63.5% in the assay with Brassica napus [6] and 97% in the assay with Brassica napus [7].

Take `CCOC(=O)C(C)Oc1ccc(Oc2nc3c(c(SCc4ccccc4)nn3-c3ccccc3)c(=O)n2C(=O)Nc2cccc(C)c2)cc1` (stereo not drawn): the inhibition at 10 µg/mL in the assay on Echinochloa crus-galli [1] is 33.3%; in the assay with Echinochloa crus-galli [4], -6.4%; in the assay with Brassica napus [5], -2.1%; in the assay with Brassica napus [8], 24.4%. The inhibition at 100 µg/mL in the assay on Echinochloa crus-galli [2] is 61.9%; in the assay on Echinochloa crus-galli [3], -6.4%; in the assay on Brassica napus [6] it was 10.6%; in the assay on Brassica napus [7], 32.2%.

With `CCOC(=O)COc1ccc(Oc2nc3c(c(SCc4ccccc4)nn3-c3ccccc3)c(=O)n2C(=O)Nc2cccc(C)c2)cc1`, the inhibition at 10 µg/mL in the assay on Echinochloa crus-galli [1] turned out to be 66.7%; in the assay with Echinochloa crus-galli [4], 5.3%; in the assay on Brassica napus [5] it was 20%; with Brassica napus [8], 20.6%. The inhibition at 100 µg/mL with Echinochloa crus-galli [2] is 75.5%; in the assay on Echinochloa crus-galli [3], -10.5%; in the assay with Brassica napus [6] it was 24%; in the assay on Brassica napus [7], 64.1%.

As to `CCCOC(=O)C(C)Oc1ccc(Oc2nc3c(c(S(C)(=O)=O)nn3-c3ccccc3)c(=O)n2C(=O)Nc2ccccc2Cl)cc1` (stereo not drawn), the inhibition at 10 µg/mL in the assay on Echinochloa crus-galli [1] is 50%; with Echinochloa crus-galli [4], 16.7%; in the assay with Brassica napus [5], -17.8%; in the assay with Brassica napus [8], 17.4%. Also, the inhibition at 100 µg/mL with Echinochloa crus-galli [2] was 80%; with Echinochloa crus-galli [3], 23.3%; in the assay on Brassica napus [6], 42.2%; with Brassica napus [7], 67.4%.

For the molecule `CCOC(=O)C(C)Oc1ccc(Oc2nc3c(c(S(=O)(=O)Cc4ccccc4)nn3-c3ccccc3)c(=O)n2C(=O)Nc2cccc(C)c2)cc1` (stereo not drawn), the inhibition at 10 µg/mL with Echinochloa crus-galli [1] came out at 50%; with Echinochloa crus-galli [4], 13.3%; with Brassica napus [5] it was 6.7%; in the assay with Brassica napus [8], 9.8%. The inhibition at 100 µg/mL stood at 72.5% in the assay with Echinochloa crus-galli [2], 16.7% with Echinochloa crus-galli [3], 6.7% in the assay with Brassica napus [6] and 34.8% in the assay with Brassica napus [7].
